Test systems include UACC-62; SR; NCI/ADR-RES; SF-268; SN12C; Malme-3M; LOX IMVI; SK-MEL-28; MCF7; SNB-19; NCI-H226; OVCAR-4; CAKI-1; HOP-92; A498; A549; KM12; HL-60; NCI-H23; HCT-116.
Assay in all cases: growth of human tumour cells (NCI), 48 h

Each structure is given as a SMILES string.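 Test compounds were applied to cells in 96-well plates for 48 hours at 5 doses. GI50 marks 50% less growth.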 Calls of active or inactive are those of the source. Rule as the data show it: active = GI50 up to about 1.1 µM and inactive = higher. A value given as a limit tells only on which side of the number the result lay.

Take `CC1=C(C(=O)N[C@@H](Cc2ccccc2)C(=O)O)N2C(=O)[C@@H](NC(=O)[C@@H](N)CC(C)C)[C@H]2SC1`: the GI50 in the experiment on UACC-62, with SR, with NCI/ADR-RES, in the experiment on SF-268, in the experiment on SN12C and in the experiment on Malme-3M was > 100 µM (inactive) each time. Also, the GI50 in the experiment on LOX IMVI, in the experiment on SK-MEL-28, with MCF7, in the experiment with SNB-19, with NCI-H226 and in the experiment on OVCAR-4 was > 100 µM (inactive) throughout. Also, the GI50 with CAKI-1, in the experiment with HOP-92, in the experiment with A498, in the experiment with A549, in the experiment with KM12 and in the experiment on HL-60 was > 100 µM (inactive) in each case.

On to `CCOC(=O)CC1CCN(C(=O)c2ccccc2)C2Cc3c([nH]c4ccccc34)C12C[N+](=O)[O-]` (stereo not given), for which the GI50 is 58.7 µM (inactive) in the experiment on UACC-62; 39.8 µM (inactive) in the experiment on SR; 49.4 µM (inactive) with NCI/ADR-RES; 73.6 µM (inactive) with NCI-H23; > 100 µM (inactive) in the experiment with SF-268; > 100 µM (inactive) in the experiment with SN12C. Further, the GI50 in the experiment with Malme-3M was > 100 µM (inactive); in the experiment with LOX IMVI, > 100 µM (inactive); with SK-MEL-28 it was > 100 µM (inactive); in the experiment with MCF7 it was 41 µM (inactive); with NCI-H226, > 100 µM (inactive); in the experiment with OVCAR-4 it was > 100 µM (inactive). Also, the GI50 with CAKI-1 is 62.2 µM (inactive); in the experiment on HOP-92 it was 40.6 µM (inactive); in the experiment with A498, > 100 µM (inactive); in the experiment with KM12 it was 71 µM (inactive); in the experiment on HL-60, 38.7 µM (inactive).

On to `CCOC(=O)CCC(C(=O)OCC)n1nnc2ccc(Nc3c(C)[n+]([O-])c4cc(F)c(OCC)cc4[n+]3[O-])cc21` (stereo not given), for which the GI50 in the experiment with UACC-62 was 20.1 µM (inactive); with SR it was 36.5 µM (inactive); in the experiment on NCI/ADR-RES, 87.7 µM (inactive); in the experiment with NCI-H23 it was 73.3 µM (inactive); with HCT-116, 64.3 µM (inactive); in the experiment with SF-268, 28 µM (inactive). In addition, the GI50 is 45.4 µM (inactive) in the experiment with SN12C; 35.6 µM (inactive) with Malme-3M; 32.7 µM (inactive) with LOX IMVI; 22.5 µM (inactive) in the experiment on MCF7; > 100 µM (inactive) in the experiment on SNB-19; 48.5 µM (inactive) with NCI-H226. Also, the GI50 in the experiment with OVCAR-4 was 36.4 µM (inactive); in the experiment with CAKI-1, 66.1 µM (inactive); in the experiment with HOP-92 it was 24.6 µM (inactive); with A498, > 100 µM (inactive); in the experiment with A549, 77.8 µM (inactive); in the experiment on KM12, 80.4 µM (inactive). Also, the GI50 with HL-60 was 36.8 µM (inactive).

For `COc1cc2cc(C(=O)Nc3cc4n(n3)-c3ccccc3C4)[nH]c2c(OC)c1OC`, the GI50 in the experiment with SR is 2.26 µM (inactive); in the experiment with NCI/ADR-RES it was 1.25 µM (inactive); with NCI-H23, 2.75 µM (inactive); in the experiment with HCT-116, 2.73 µM (inactive); in the experiment on SF-268, 6.19 µM (inactive); in the experiment with SN12C it was 8.79 µM (inactive). Further, the GI50 in the experiment on Malme-3M was 1.29 µM (inactive); in the experiment on LOX IMVI, 4.68 µM (inactive); with SK-MEL-28 it was 3.72 µM (inactive); with MCF7, 2.58 µM (inactive); in the experiment on SNB-19, 9.48 µM (inactive); with NCI-H226, 1.22 µM (inactive). Moreover, the GI50 in the experiment with OVCAR-4 was 1.24 µM (inactive); with CAKI-1, 1.72 µM (inactive); in the experiment on HOP-92, 2.18 µM (inactive); in the experiment on A498 it was 23.4 µM (inactive); in the experiment with A549, 1.81 µM (inactive); with KM12, 1.85 µM (inactive). Besides, in the experiment with HL-60, the GI50 was 2.25 µM (inactive).

As for `CC#CC#C/C=C1/O[C@]2(CCC(OC(=O)CC(C)C)CO2)[C@@H]2O[C@H]12` (stereo not given in full), the GI50 in the experiment with UACC-62 is 23.3 µM (inactive); in the experiment on SR, 28.1 µM (inactive); with NCI/ADR-RES, 28.4 µM (inactive); in the experiment on NCI-H23, 24.5 µM (inactive); in the experiment on HCT-116, 15.4 µM (inactive); with SF-268, 24.4 µM (inactive). Moreover, the GI50 in the experiment with SN12C was 22.2 µM (inactive); in the experiment with Malme-3M, 21.8 µM (inactive); in the experiment on LOX IMVI, 16.2 µM (inactive); with MCF7, 33 µM (inactive); in the experiment with SNB-19, 61.7 µM (inactive); with OVCAR-4, 29.6 µM (inactive). Also, the GI50 is 18.2 µM (inactive) with CAKI-1; 27.4 µM (inactive) in the experiment with HOP-92; > 100 µM (inactive) in the experiment with A498; 39.6 µM (inactive) in the experiment on A549; 27 µM (inactive) in the experiment with KM12; 19.7 µM (inactive) in the experiment on HL-60.

For `O=C1/C(=C\c2cccc(Oc3ccccc3)c2)S(=O)(=O)C(c2ccccc2)N1c1ccc(Cl)cc1` (stereo not given), the GI50 in the experiment on UACC-62 is 7.82 µM (inactive); in the experiment with SR, 8.2 µM (inactive); in the experiment with NCI/ADR-RES, 17.3 µM (inactive); with NCI-H23, 24.9 µM (inactive); in the experiment on HCT-116 it was 13.9 µM (inactive); in the experiment with SN12C it was 15.6 µM (inactive). Further, the GI50 in the experiment with Malme-3M was 18.2 µM (inactive); with LOX IMVI, 10.4 µM (inactive); with SK-MEL-28, 17.8 µM (inactive); with MCF7, 12.6 µM (inactive); in the experiment with SNB-19, 25.1 µM (inactive); in the experiment on NCI-H226, 43.1 µM (inactive). Moreover, the GI50 in the experiment with OVCAR-4 was 13.1 µM (inactive); in the experiment on CAKI-1 it was 13.2 µM (inactive); with HOP-92, 14 µM (inactive); in the experiment on A498 it was 34.4 µM (inactive); with A549, 42.9 µM (inactive); with KM12, 24 µM (inactive). Further, the GI50 in the experiment with HL-60 was 13.2 µM (inactive).

On to `Cc1ccc(C(=O)CC(Cl)=C(Cl)Cl)cc1`, for which the GI50 was > 100 µM (inactive) in the experiment on UACC-62; 25.7 µM (inactive) with SR; > 100 µM (inactive) in the experiment with NCI/ADR-RES; > 100 µM (inactive) in the experiment with NCI-H23; 61.9 µM (inactive) in the experiment on HCT-116; > 100 µM (inactive) in the experiment with SF-268. For the same compound, the GI50 is > 100 µM (inactive) with Malme-3M; 31.7 µM (inactive) in the experiment on LOX IMVI; > 100 µM (inactive) in the experiment with SK-MEL-28; > 100 µM (inactive) in the experiment on MCF7; > 100 µM (inactive) in the experiment with SNB-19; 85.5 µM (inactive) in the experiment with NCI-H226. In addition, the GI50 with OVCAR-4 is 63.2 µM (inactive); in the experiment with CAKI-1, 38.8 µM (inactive); in the experiment with HOP-92, > 100 µM (inactive); with A498, > 100 µM (inactive); in the experiment on A549, > 100 µM (inactive); with KM12, > 100 µM (inactive). Besides, the GI50 with HL-60 was 54 µM (inactive).

`Cc1cc(-c2nc3cc(F)c(F)cc3s2)ccc1N`: the GI50 is > 100 µM (inactive) in the experiment with UACC-62; > 100 µM (inactive) with SR; > 59.3 µM (inactive) with NCI/ADR-RES; > 70.6 µM (inactive) in the experiment with NCI-H23; > 55.6 µM (inactive) in the experiment with HCT-116; > 100 µM (inactive) in the experiment with SF-268. In addition, the GI50 is > 74.6 µM (inactive) with SN12C; > 100 µM (inactive) with Malme-3M; > 82.4 µM (inactive) with LOX IMVI; > 100 µM (inactive) with SK-MEL-28; < 0.0123 µM (active) in the experiment on MCF7; > 59.2 µM (inactive) in the experiment with SNB-19. In addition, the GI50 was 60.7 µM (inactive) with OVCAR-4; > 45 µM (inactive) with CAKI-1; > 100 µM (inactive) in the experiment with HOP-92; > 100 µM (inactive) in the experiment on A498; > 55.5 µM (inactive) with A549; > 69.2 µM (inactive) with KM12. Besides, the GI50 with HL-60 is > 41.6 µM (inactive).

Turning to `CC1=NC(=Cc2ccccc2O)C(=O)N1n1c(-c2ccccc2)nc2ccccc2c1=O`, the GI50 is 14.3 µM (inactive) in the experiment with UACC-62; 32.5 µM (inactive) in the experiment with SR; 33.3 µM (inactive) with NCI/ADR-RES; 32.8 µM (inactive) in the experiment on NCI-H23; 26.5 µM (inactive) with HCT-116; 33.7 µM (inactive) in the experiment on SF-268. The GI50 in the experiment with SN12C is 39.9 µM (inactive); in the experiment on Malme-3M it was 80.5 µM (inactive); in the experiment on LOX IMVI, 33 µM (inactive); in the experiment on SK-MEL-28 it was 36.9 µM (inactive); in the experiment on MCF7, 25.6 µM (inactive); with SNB-19, 65.5 µM (inactive). The GI50 in the experiment with NCI-H226 is 51.1 µM (inactive); with OVCAR-4, 27.5 µM (inactive); with HOP-92 it was 31.9 µM (inactive); in the experiment with A498, 62.8 µM (inactive); with A549 it was 35.1 µM (inactive); in the experiment with KM12, 67 µM (inactive). Further, the GI50 in the experiment on HL-60 was 35.6 µM (inactive).

For `O=C(N/C=C1\C(=O)Oc2ccccc2C1=O)Oc1ccccc1`, the GI50 with UACC-62 is 20 µM (inactive); in the experiment on SR it was 18 µM (inactive); in the experiment on NCI/ADR-RES it was 27.4 µM (inactive); in the experiment on NCI-H23, 25.6 µM (inactive); in the experiment on HCT-116, 21.4 µM (inactive); in the experiment with SN12C it was 18.6 µM (inactive). In addition, the GI50 is 19.1 µM (inactive) with Malme-3M; 25.1 µM (inactive) in the experiment on LOX IMVI; 35.1 µM (inactive) in the experiment with MCF7; 30.6 µM (inactive) with SNB-19; 14.4 µM (inactive) in the experiment with NCI-H226; 22.5 µM (inactive) in the experiment with OVCAR-4. Further, the GI50 with CAKI-1 is 21.6 µM (inactive); in the experiment on HOP-92, 22.1 µM (inactive); in the experiment with A498 it was 15.2 µM (inactive); in the experiment on A549, 32.5 µM (inactive); with KM12, 35.6 µM (inactive); in the experiment on HL-60 it was 29.9 µM (inactive).

The values above are taken from ChEMBL document CHEMBL1201862, “PubChem BioAssay data set” (2004).
